The source of these data is US20100173943A1, “INSECTICIDAL COMPOSITIONS WITH IMPROVED ACTION” (BAYER CROPSCIENCE AG, priority 2007, published 2010).

Assay [1] deals with cotton aphid (Aphis gossypii). Put plainly: Aphis gossypii test (APHIGO spray treatment). The format is in vivo. To be noted: cotton leaves sprayed, 6 days; for pest or weed control at 20 ppm: 20 ppm a.i. alone; for pest or weed control at 4 ppm: 4 ppm a.i. alone; for pest or weed control at 0.8 ppm: 0.8 ppm a.i. alone. As for the experimental part: Aphis gossypii Test (APHIGO Spray Treatment)
(§1) Solvent: 7 parts by weight of dimethylformamide
(§2) Emulsifier: 2 parts by weight of alkylaryl polyglycol ether
To prepare a ready-to-use active ingredient formulation, 1 part by weight of active ingredient is mixed with the specified amounts of solvent and emulsifier and the concentrate is diluted with emulsifier-containing water to the desired concentration. In the case that addition of ammonium salts, penetrants, or ammonium salts and penetrants is required, they are pipetted in each case into the finished preparation solution after dilution in a concentration of 1000 ppm each.
Cotton leaves (Gossypium hirsutum) highly infested by the cotton aphid (Aphis gossypii) are sprayed with an active ingredient formulation with the desired concentration.
After the desired period, the kill rate in % is determined. 100% means that all aphids have been killed; 0% means that no aphids have been killed.

Assay [2] concerns green peach aphid (Myzus persicae). Put plainly: Myzus persicae test (MYZUPE). The format is in vivo. The conditions noted are these: pepper plants sprayed, 6 days; for pest or weed control at 4 ppm / pest or weed control at 20 ppm / pest or weed control at 0.8 ppm / pest or weed control at 100 ppm: Myzus persicae, 144 h, read-out: Kill in % after 6 days a.i.; for pest or weed control at 4 ppm: 4 ppm a.i. alone; for pest or weed control at 20 ppm: 20 ppm a.i. alone; for pest or weed control at 0.8 ppm: 0.8 ppm a.i. alone; for pest or weed control at 100 ppm: 100 ppm a.i. alone. Here is the method: Myzus persicae Test (MYZUPE)
as §1, §2
To prepare an appropriate active ingredient formulation, 1 part by weight of active ingredient is mixed with the given amounts of solvent and emulsifier, and the concentrate is diluted with emulsifier-containing water to the desired concentration. In the case that addition of ammonium salts, penetrants, or ammonium salts and penetrants is required, they are pippetted in each case into the finished preparation solution after dilution in a concentration of 1000 ppm each.
Pepper plants (Capsicum annuum) highly infested by the green peach aphid (Myzus persicaei) are treated by spraying with the active ingredient formulation in the desired concentration.
After the desired time, the kill rate in % is determined. 100% means that all animals have been killed; 0% means that no animals have been killed.

The mark [3] stands for this setting: 20 ppm a.i. + AMS and RME 1000 ppm each.
The mark [4] stands for this setting: 20 ppm a.i. + ammonium sulphate 1000 ppm.
Setting [5] is: 20 ppm a.i. + rapeseed oil methyl ester 1000 ppm.
[6] abbreviates: Aphis gossypii, 144 h, read-out: Kill in % after 6 days a.i.
Where [7] appears, read: 4 ppm a.i. + AMS and RME 1000 ppm each.
[8] abbreviates: 4 ppm a.i. + ammonium sulphate 1000 ppm.
Setting [9] is: 4 ppm a.i. + rapeseed oil methyl ester 1000 ppm.
[10] abbreviates: 0.8 ppm a.i. + AMS and RME 1000 ppm each.
The mark [11] stands for this setting: 0.8 ppm a.i. + ammonium sulphate 1000 ppm.
Setting [12] is: 0.8 ppm a.i. + rapeseed oil methyl ester 1000 ppm.
Where [13] appears, read: 100 ppm a.i. + AMS and RME 1000 ppm each.
The mark [14] stands for this setting: 100 ppm a.i. + ammonium sulphate 1000 ppm.
[15] abbreviates: 100 ppm a.i. + rapeseed oil methyl ester 1000 ppm.

As for `O=C1C=C(N(Cc2ccc(C(F)(F)F)nc2)C2CC2)CO1` [Compound I-24, 4-(cyclopropyl {[6-(trifluoromethyl)pyrid-3-yl]methyl}amino)furan-2(5H)-one], the “Kill in % after 6 days +AMS + RME” value is 90% in assay [1] (setting [3]), 75% in assay [2] (setting [7]) and 98% in assay [2] (setting [3]). Besides, the “Kill in % after 6 days +AMS” value in assay [1] (setting [4]) was found to be 85%; in assay [2] (setting [8]), 20%; in assay [2] (setting [4]), 90%. The “Kill in % after 6 days +RME” value in assay [1] (setting [5]) was 85%; in assay [2] (setting [9]), 85%; in assay [2] (setting [5]) it was 95%. The figures for the pest or weed control at 20 ppm in assay [1] (setting [6]) and in assay [2] were 50% and 75%, respectively. Further, in assay [2], the pest or weed control at 4 ppm amounted to 15%.

Turning to `CC1OC(=O)C=C1N(C)Cc1ccc(Cl)nc1` (stereo not drawn) [Compound I-25, 4-{[(6-chloropyrid-3-yl)methyl](methyl)amino}-5-methylfuran-2(5H)-one], the “Kill in % after 6 days +AMS + RME” value in assay [1] (setting [7]) was 100%; in assay [2] (setting [7]), 55%. Also, the “Kill in % after 6 days +AMS” value in assay [1] (setting [8]) came out at 60%; in assay [2] (setting [8]) it was 50%. The “Kill in % after 6 days +RME” value in assay [1] (setting [9]) stood at 75%; in assay [2] (setting [9]) it was 80%. For the same compound, the pest or weed control at 4 ppm in assay [1] (setting [6]) was determined as 65%; in assay [2] it was 0%.

For the compound `CN(Cc1ccc(Br)nc1)C1=CC(=O)OC1` [Compound I-26, 4-{[(6-bromopyrid-3-yl)methyl](methyl)amino}furan-2(5H)-one], the “Kill in % after 6 days +AMS + RME” value in assay [1] (setting [10]) is recorded as 98%; in assay [2] (setting [10]) it was 95%. Also, the “Kill in % after 6 days +AMS” value was determined as 70% in assay [1] (setting [11]) and 55% in assay [2] (setting [11]). In addition, the “Kill in % after 6 days +RME” value is reported as 98% in assay [1] (setting [12]) and 100% in assay [2] (setting [12]). The pest or weed control at 0.8 ppm in assay [1] (setting [6]) came to 90%; in assay [2], 65%.

For the compound `CN(Cc1ccc(Cl)nc1)C1=C(F)C(=O)OC1` [Compound I-28, 4-{[(6-chloropyrid-3-yl)methyl](methyl)amino}-3-fluorofuran-2(5H)-one], the “Kill in % after 6 days +AMS + RME” value in assay [1] (setting [7]) is on record as 80%; in assay [1] (setting [3]), 95%; in assay [2] (setting [7]), 95%. Also, the “Kill in % after 6 days +AMS” value was 60% in assay [1] (setting [8]), 90% in assay [1] (setting [4]) and 15% in assay [2] (setting [8]). The “Kill in % after 6 days +RME” value is reported as 75% in assay [1] (setting [9]), 95% in assay [1] (setting [5]) and 90% in assay [2] (setting [9]). In addition, the pest or weed control at 4 ppm in assay [1] (setting [6]) and in assay [2] was 50% throughout. The pest or weed control at 20 ppm in assay [1] (setting [6]) stood at 55%.

As to `CON(Cc1ccc(Cl)nc1)C1=CC(=O)OC1` [Compound I-29, 4-{[(6-chloropyrid-3-yl)methyl](methoxy)amino}furan-2(5H)-one], the entries for the “Kill in % after 6 days +AMS + RME” value in assay [1] (setting [7]) and in assay [2] (setting [10]) were 75% and 50%, respectively. Also, the “Kill in % after 6 days +AMS” value came to 65% in assay [1] (setting [8]) and 0% in assay [2] (setting [11]). For the same compound, the “Kill in % after 6 days +RME” value in assay [1] (setting [9]) is 50%; in assay [2] (setting [12]), 30%. Also, in assay [1] (setting [6]), the pest or weed control at 4 ppm was determined as 50%. For the same compound, in assay [2], the pest or weed control at 0.8 ppm was 0%.

On to `CCN(Cc1ccc(Cl)nc1)C1=CC(=O)OC1` [Compound I-30, 4-{[(6-chloropyrid-3-yl)methyl](ethyl)amino}furan-2(5H)-one], for which the figures for the “Kill in % after 6 days +AMS + RME” value in assay [1] (setting [3]) and in assay [2] (setting [10]) were 95% and 45%, respectively. Also, the “Kill in % after 6 days +AMS” value is 100% in assay [1] (setting [4]) and 25% in assay [2] (setting [11]). Moreover, the results for the “Kill in % after 6 days +RME” value in assay [1] (setting [5]) and in assay [2] (setting [12]) were 100% and 95%, respectively. Moreover, the pest or weed control at 20 ppm in assay [1] (setting [6]) came to 80%. In addition, the pest or weed control at 0.8 ppm in assay [2] was found to be 5%.

On to `O=C1C=C(N(Cc2ccc(Cl)nc2)C2CC2)CO1` [Compound I-31, 4-{[(6-chloropyrid-3-yl)methyl](cyclopropyl)amino}furan-2(5H)-one], for which the “Kill in % after 6 days +AMS + RME” value in assay [1] (0.16 ppm a.i. + AMS and RME 1000 ppm each) amounted to 60%; in assay [1] (setting [10]) it was 80%; in assay [2] (setting [10]), 95%. Also, the “Kill in % after 6 days +AMS” value in assay [1] (0.16 ppm a.i. + ammonium sulphate 1000 ppm) is 30%; in assay [1] (setting [11]), 65%; in assay [2] (setting [11]), 80%. In addition, the “Kill in % after 6 days +RME” value was 15% in assay [1] (0.16 ppm a.i. + rapeseed oil methyl ester 1000 ppm), 80% in assay [1] (setting [12]) and 100% in assay [2] (setting [12]). Besides, in assay [1] (Aphis gossypii, 144 h, 0.16 ppm a.i. alone, read-out: Kill in % after 6 days a.i.), the pest or weed control at 0.16 ppm stood at 0%. Besides, the pest or weed control at 0.8 ppm in assay [1] (setting [6]) and in assay [2] was 50% each time.

With `C=CCN(Cc1ccc(Cl)nc1)C1=CC(=O)OC1` [Compound I-32, 4-{allyl[(6-chloropyrid-3-yl)methyl]amino}furan-2(5H)-one], the “Kill in % after 6 days +AMS + RME” value came to 100% in assay [1] (setting [3]), 80% in assay [2] (setting [7]) and 100% in assay [2] (setting [3]). For the same compound, the figures for the “Kill in % after 6 days +AMS” value in assay [1] (setting [4]), in assay [2] (setting [8]) and in assay [2] (setting [4]) were 100%, 60% and 100%, respectively. Further, the “Kill in % after 6 days +RME” value in assay [1] (setting [5]) turned out to be 100%; in assay [2] (setting [9]), 70%; in assay [2] (setting [5]), 98%. Further, the pest or weed control at 20 ppm in assay [1] (setting [6]) came to 0%; in assay [2] it was 15%. Also, the pest or weed control at 4 ppm in assay [2] worked out at 0%.

In the case of `C#CCN(Cc1ccc(Cl)nc1)C1=CC(=O)OC1` [Compound I-33, 4-{[(6-chloropyrid-3-yl)methyl](prop-2-yn-1-yl)amino}furan-2(5H)-one], the “Kill in % after 6 days +AMS + RME” value is listed as 15% in assay [1] (setting [7]) and 95% in assay [2] (setting [13]). Moreover, the “Kill in % after 6 days +AMS” value in assay [1] (setting [8]) amounted to 25%; in assay [2] (setting [14]), 45%. For the same compound, the “Kill in % after 6 days +RME” value in assay [1] (setting [9]) was 65%; in assay [2] (setting [15]), 95%. Also, the pest or weed control at 4 ppm in assay [1] (setting [6]) amounted to 30%. Besides, the pest or weed control at 100 ppm in assay [2] is 40%.

For `CCCN(Cc1ccc(Cl)nc1)C1=CC(=O)CCC1` [Compound I-34, 3-{[(6-chloropyrid-3-yl)methyl](propyl)amino}cyclohex-2-en-1-one], the “Kill in % after 6 days +AMS + RME” value is 45% in assay [1] (setting [13]) and 85% in assay [2] (setting [13]). Also, the “Kill in % after 6 days +AMS” value is on record as 20% in assay [1] (setting [14]) and 50% in assay [2] (setting [14]). The “Kill in % after 6 days +RME” value in assay [1] (setting [15]) is 40%; in assay [2] (setting [15]) it was 85%. In addition, the pest or weed control at 100 ppm in assay [1] (Aphis gossypii, 144 h, 100 ppm a.i. alone, read-out: Kill in % after 6 days a.i.) was 15%; in assay [2], 40%.
